Test [1] has as its target T1, Dual specificity protein phosphatase 6 (Rattus norvegicus, UniProt Q64346).
T1 sequence (Q64346 whole entry): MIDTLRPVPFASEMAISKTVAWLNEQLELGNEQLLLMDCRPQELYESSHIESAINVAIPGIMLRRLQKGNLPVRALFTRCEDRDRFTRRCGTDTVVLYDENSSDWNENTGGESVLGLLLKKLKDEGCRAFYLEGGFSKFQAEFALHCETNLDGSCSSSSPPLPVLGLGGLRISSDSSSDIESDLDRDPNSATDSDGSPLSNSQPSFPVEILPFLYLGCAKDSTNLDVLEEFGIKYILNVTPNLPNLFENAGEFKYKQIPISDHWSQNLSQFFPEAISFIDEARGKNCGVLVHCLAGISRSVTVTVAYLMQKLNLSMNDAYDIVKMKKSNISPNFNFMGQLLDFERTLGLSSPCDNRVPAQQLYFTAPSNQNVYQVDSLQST

For test [2], the target named is Glyceraldehyde-3-phosphate dehydrogenase (Homo sapiens, UniProt P04406).
Sequence of Glyceraldehyde-3-phosphate dehydrogenase (P04406 whole entry): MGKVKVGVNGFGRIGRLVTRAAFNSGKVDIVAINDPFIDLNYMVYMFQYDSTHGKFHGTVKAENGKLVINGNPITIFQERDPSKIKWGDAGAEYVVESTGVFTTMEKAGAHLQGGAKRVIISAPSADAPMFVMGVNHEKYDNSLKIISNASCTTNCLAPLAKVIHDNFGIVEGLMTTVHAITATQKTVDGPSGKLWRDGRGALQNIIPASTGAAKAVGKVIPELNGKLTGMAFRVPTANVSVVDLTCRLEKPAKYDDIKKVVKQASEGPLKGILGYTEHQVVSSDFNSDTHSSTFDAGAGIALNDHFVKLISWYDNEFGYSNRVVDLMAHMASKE
The target of test [3] is T2, RNA-binding protein pos-1 (Caenorhabditis elegans, UniProt G5EF15).
T2 sequence (G5EF15 whole entry): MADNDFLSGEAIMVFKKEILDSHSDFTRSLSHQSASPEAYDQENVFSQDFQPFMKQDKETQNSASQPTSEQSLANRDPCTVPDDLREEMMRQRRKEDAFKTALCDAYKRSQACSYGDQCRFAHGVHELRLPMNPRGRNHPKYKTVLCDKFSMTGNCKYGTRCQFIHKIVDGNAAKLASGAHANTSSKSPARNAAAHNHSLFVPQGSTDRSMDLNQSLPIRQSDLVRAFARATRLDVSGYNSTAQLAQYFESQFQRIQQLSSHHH
Kind of test: disruptors of C. elegans POS-1 RNA interaction – biochemical, fluorescence polarization, dose response (AID 1964).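 Note: purified POS-1 fused to maltose binding protein made in E. coli; potency of compounds blocking POS-1 binding to fluorescent RNA.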 For orientation: Polarisation of emitted light reports the rotation of a fluorescent probe.

In test [4] the target is T3, Tyrosine-protein phosphatase non-receptor type 7 (Homo sapiens, UniProt P35236).
T3 sequence (P35236 whole entry): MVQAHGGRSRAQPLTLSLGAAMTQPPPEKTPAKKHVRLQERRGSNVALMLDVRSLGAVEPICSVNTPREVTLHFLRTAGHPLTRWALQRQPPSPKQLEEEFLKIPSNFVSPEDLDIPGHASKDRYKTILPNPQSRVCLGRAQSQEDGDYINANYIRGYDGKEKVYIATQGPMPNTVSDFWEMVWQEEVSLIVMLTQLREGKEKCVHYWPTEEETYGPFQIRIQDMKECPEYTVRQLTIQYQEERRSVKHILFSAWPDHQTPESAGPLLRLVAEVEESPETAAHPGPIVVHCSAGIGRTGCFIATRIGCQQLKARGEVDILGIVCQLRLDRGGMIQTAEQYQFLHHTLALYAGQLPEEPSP
In kind it is functional.

In test [5] the target is Heat shock 70 kDa protein 1A (Homo sapiens, UniProt P0DMV8). In words: inhibition of Hsp70 binding activity – biochemical, fluorescence polarization, SAR follow-up (AID 1072).
Sequence of Heat shock 70 kDa protein 1A (P0DMV8 whole entry): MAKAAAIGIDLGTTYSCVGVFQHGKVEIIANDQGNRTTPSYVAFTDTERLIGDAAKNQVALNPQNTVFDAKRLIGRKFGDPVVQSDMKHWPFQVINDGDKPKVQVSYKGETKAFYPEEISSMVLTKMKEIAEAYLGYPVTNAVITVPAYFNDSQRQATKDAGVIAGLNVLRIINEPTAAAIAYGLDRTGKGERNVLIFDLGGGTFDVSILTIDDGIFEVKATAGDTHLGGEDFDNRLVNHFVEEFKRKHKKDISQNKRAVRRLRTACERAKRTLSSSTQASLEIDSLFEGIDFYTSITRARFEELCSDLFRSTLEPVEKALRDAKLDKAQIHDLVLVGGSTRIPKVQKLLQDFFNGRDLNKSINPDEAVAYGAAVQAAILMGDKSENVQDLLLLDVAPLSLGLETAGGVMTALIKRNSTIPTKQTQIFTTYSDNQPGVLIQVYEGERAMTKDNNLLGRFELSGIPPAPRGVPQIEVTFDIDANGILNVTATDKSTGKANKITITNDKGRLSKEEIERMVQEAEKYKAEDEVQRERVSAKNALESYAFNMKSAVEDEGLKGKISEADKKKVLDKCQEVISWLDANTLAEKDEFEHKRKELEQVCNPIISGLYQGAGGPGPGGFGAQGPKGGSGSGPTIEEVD
In test [6] the target is T1, Dual specificity protein phosphatase 6. In kind it is functional.
Test [7] has as its target Heat shock cognate 71 kDa protein (Homo sapiens, UniProt P11142). Kind of test: In Vitro Hsc70 Dose Response Fluorescence Polarization Assay. [Related pubchem assays: 1072 ].
Test [8] has as its target T4, Zinc finger protein mex-5 (Caenorhabditis elegans, UniProt Q9XUB2).
T4 sequence (Q9XUB2 whole entry): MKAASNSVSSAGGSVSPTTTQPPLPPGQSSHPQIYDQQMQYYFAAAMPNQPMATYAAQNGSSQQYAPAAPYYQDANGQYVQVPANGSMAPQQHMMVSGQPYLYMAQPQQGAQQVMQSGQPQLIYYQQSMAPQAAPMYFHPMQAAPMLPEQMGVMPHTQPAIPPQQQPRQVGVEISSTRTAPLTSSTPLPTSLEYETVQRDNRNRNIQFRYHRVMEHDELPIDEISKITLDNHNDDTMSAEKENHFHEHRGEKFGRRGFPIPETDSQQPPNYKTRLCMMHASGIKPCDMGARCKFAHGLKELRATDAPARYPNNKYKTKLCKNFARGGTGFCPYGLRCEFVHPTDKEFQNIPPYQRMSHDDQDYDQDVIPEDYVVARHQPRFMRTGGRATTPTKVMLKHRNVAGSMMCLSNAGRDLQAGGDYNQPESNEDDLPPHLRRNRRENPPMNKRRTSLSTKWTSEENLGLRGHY
In words: potency of MEX-5 RNA-binding blockers – biochemical, C. elegans, fluorescence polarization, dose response (AID 1960).

Test [9] in a line: blockers of SFLLRN-triggered platelet ATP secretion – cell-based, human platelets, luminescence, dry powder, dose response (AID 493100). In kind it is functional.
Test [10] in a line: PAR1 agonist-induced platelet activation inhibition – cell-based, fluorescence, flow cytometry, human platelets, dose response (AID 2511). It counts as functional. (In general: Flow cytometry measures light scatter and fluorescence of single cells or particles in a stream.)
Test [11] is described as follows: Luminescence Cell-Based Dose Response Follow up to Identify Inhibitors of Platelet Dense Granule Release. [Related pubchem assays (depositor defined):AID1663, AID1678, AID1889, AID2519]. It counts as functional.
Test [12] is described as follows: SFLLRN-induced P-Selectin Platelet Surface Expression Measured in Cell-Based System Using Flow Cytometry - 2016-03_Inhibitor_Dose_DryPowder_Activity_Set3. [Related pubchem assays (depositor defined):AID1678]. It counts as functional.
In test [13] the target is Luciferin 4-monooxygenase (Photinus pyralis, UniProt P08659). In words: inhibition of purified Photinus pyralis luciferase – biochemical, luminescence, dose response (AID 1891).
Sequence of Luciferin 4-monooxygenase (P08659 whole entry): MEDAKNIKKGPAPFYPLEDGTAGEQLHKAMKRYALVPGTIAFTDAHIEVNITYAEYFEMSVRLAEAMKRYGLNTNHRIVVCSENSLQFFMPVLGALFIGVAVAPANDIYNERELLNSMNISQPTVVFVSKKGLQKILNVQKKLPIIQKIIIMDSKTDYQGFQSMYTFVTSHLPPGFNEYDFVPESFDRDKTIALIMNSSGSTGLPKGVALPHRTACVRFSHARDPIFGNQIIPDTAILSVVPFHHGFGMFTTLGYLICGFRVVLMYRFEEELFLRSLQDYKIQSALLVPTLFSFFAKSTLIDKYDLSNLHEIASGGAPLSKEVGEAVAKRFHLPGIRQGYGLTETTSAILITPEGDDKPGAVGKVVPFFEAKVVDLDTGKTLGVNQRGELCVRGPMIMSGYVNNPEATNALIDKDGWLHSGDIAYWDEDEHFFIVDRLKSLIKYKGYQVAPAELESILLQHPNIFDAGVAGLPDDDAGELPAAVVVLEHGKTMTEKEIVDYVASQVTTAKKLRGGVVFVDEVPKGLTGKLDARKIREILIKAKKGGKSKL
A short description of test [14]: Luminescence Cell-Based Dose Confirmation HTS to Identify Inhibitors of Platelet Dense Granule Release. [Related pubchem assays: 1663 (Primary HTS), 1678 (Summary of Project)]. In kind it is functional.
Test [15] is described as follows: Luminescence Cell-Based Dose Response HTS to Identify Inhibitors of 5'UTR Stem-Loop Driven Prion Protein mRNA Translation in H4 Neuroglioblastoma Cells. [Related pubchem assays: 1827 (Project Summary), 1813 (Primary HTS)]. In kind it is functional.
The target of test [16] is T5, Microphthalmia-associated transcription factor (Homo sapiens, UniProt O75030).
T5 sequence (O75030 whole entry): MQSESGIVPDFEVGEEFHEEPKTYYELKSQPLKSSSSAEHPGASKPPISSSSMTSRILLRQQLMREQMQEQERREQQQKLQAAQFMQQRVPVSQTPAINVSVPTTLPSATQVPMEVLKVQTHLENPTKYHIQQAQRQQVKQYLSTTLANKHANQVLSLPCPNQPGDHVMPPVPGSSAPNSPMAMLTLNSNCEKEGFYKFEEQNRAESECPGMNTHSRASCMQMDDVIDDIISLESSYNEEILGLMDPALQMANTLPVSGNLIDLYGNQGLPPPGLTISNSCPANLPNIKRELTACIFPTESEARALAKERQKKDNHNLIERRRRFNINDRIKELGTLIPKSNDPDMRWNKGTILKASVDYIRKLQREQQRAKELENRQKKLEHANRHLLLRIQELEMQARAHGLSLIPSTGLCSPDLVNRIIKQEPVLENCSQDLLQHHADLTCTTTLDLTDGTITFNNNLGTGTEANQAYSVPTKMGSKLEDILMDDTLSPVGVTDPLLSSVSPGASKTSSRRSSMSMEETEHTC
In words: reducers of TRPM1 reporter luminescence, concentration series – cell-based, SK-MEL-5, cherry-picked, set 3, MITF inhibitor project, dose response (AID 493073).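 Note: SK-MEL-5 melanoma cells with luciferase driven by the MITF target TRPM1 promoter.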 It counts as functional.

The test system of a further test is A-375. In words: MITF: Counter assay: A375 proliferation Measured in Cell-Based System Using Plate Reader - 2084-03_Inhibitor_Dose_DryPowder_Activity. [Related pubchem assays (depositor defined):AID488944]. It counts as functional. Particulars: Homo sapiens.
Test [17] is described as follows: alpha-synuclein stem-loop luciferase translation blockers – H4 neuroglioma cells, luminescence, confirmation (AID 1988). It counts as functional, cell-based.
The nature of test [18]: luciferase reporter signal suppression in cells – H4 neuroglioma cells, luminescence, dose response (AID 1990). In kind it is functional, cell-based.
A short description of test [19]: Luminescence Cell-Based Dose Retest to Confirm Inhibitors of Cancer Stem Cells. [Related pubchem assays (depositor defined):AID2717, AID2721]. Particulars: Homo sapiens. In kind it is functional.
A further test has as its system Escherichia coli. In words: microbe, parasite or virus in culture.

The source made the active and inactive calls.

Sequence of Heat shock cognate 71 kDa protein (P11142 whole entry): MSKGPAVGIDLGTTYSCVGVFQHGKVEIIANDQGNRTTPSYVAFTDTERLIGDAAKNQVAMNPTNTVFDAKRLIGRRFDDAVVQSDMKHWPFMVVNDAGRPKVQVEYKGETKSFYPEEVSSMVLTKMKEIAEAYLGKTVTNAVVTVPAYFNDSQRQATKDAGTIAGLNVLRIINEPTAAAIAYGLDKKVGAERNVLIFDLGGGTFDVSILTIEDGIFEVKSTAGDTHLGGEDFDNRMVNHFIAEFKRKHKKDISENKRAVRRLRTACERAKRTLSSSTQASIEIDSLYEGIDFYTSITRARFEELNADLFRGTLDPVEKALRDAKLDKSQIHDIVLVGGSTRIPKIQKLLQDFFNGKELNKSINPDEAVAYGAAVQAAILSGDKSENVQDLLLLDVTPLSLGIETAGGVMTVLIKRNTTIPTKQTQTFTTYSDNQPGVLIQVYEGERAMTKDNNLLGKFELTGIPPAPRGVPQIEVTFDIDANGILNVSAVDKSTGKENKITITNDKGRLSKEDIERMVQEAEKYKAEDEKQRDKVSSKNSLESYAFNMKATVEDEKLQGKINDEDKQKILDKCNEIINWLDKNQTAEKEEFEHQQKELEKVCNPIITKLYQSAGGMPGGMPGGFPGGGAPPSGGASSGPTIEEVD

With `O=C(O)C1Nc2c(cccc2C(F)(F)F)C2C=CCC12` (stereo unspecified), the concentration for half-maximal inhibition (IC50) is 9.2 µM (active) in test [1]; > 100 µM (not active) in test [2]; 5.06 µM (active) in [4]; 8.36 µM (active) in test [5]; 7.72 µM (active) in test [6]; 20.2 µM (active) in test [7]. In addition, the EC50 is 26.7 µM (active) in test [3] and 17.7 µM (active) in test [8].
As to `CCCC(=O)Nc1cccc(NC(=O)c2ccccc2Br)c1`, the half-maximal activity concentration (AC50) was 11.2 µM (active) in test [9] and < 0.156 µM (active) in test [12]. Also, the half-maximal effective concentration (EC50) in [10] is < 0.3 µM (active); in [11] it was 4.87 µM (active); in [13], > 112 µM (not active); in test [14], 1.87 µM (active).
`CC(=O)Nc1sc(C)c(C)c1C(=O)OCC(=O)N(CC(C)C)c1c(N)n(Cc2ccccc2)c(=O)[nH]c1=O`: the EC50 in test [15] is 9.81 µM (active); in test [17], 3.96 µM (active); in [18] it was 10.2 µM (active). Besides, the concentration at half-maximal activity (AC50) in [16] is 5.29 µM (active); in the test with A-375, 7.68 µM (active); in [19], 1.64 µM (active).
Regarding `CCCCOC(=O)C1=C(C)NC(=O)NC1c1ccc2c(c1)OCO2` (stereo unspecified), in the test on Escherichia coli, the AC50 is 23.6 µM (active).

Usually IC50 stands for the concentration that inhibits the measured activity by half. A word on the EC50: it is the concentration that produces a half-maximal response. As a reminder, the AC50 is the concentration at which the activity in the assay is half-maximal.

For the origin of these results see ChEMBL document CHEMBL1201862, “PubChem BioAssay data set” (2004).
